The assay concerns the target T1, SF9 affinity purified rat FPT (Rattus norvegicus, UniProt Q02293+Q04631).
T1 construct: made in house; host or cells: Sf9 insect cells
The assay is described as follows: PFT (FPT) inhibitory activity assay, radiolabeled farnesyl pyrophosphate and biotinyl peptide, streptavidin beads. In kind it is biochemical. The settings on record: HEPES buffer pH 7.4, 30° C., 30 minutes; read-out: FTase IC50. The procedure, abridged:
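Rat FPT expressed in SF9 cells was incubated 30 minutes at 30° C. with compound (in 10% DMSO), radiolabeled farnesyl pyrophosphate and biotinylated peptide. Buffer: HEPES pH 7.4, ZnCl2 20 μM, MgCl2 and DTT 5 mM each, 0.1% PEG 8000, 5 mM potassium phosphate (also run without phosphate). Product captured on streptavidin beads in magnesium acetate/H3PO4 stop buffer.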
As for `O=C(NCCO)c1cccc(SCc2c(O[C@H](Cn3ccnc3)c3ccccc3)ccc3c2CCCC3=O)c1` [Compound 172, N-(2-Hydroxyethyl)-3-{[(2-{[(1S)-2-(1H-imidazol-1-yl)-1-phenylethyl]oxy}-5-oxo-5,6,7,8-tetrahydro-1-naphthalenyl)methyl]sulfanyl}benzamide], the half-maximal inhibitory concentration (IC50) came out at 5 nM.

With `O=C(Nc1c(O[C@H](Cn2ccnc2)c2ccccc2)ccc2c1CCCC2=O)c1ccccn1` [Compound 40, Pyridine-2-carboxylic acid [2-((S)-2-imidazol-1-yl-1-phenyl-ethoxy)-5-oxo-5,6,7,8-tetrahydro-naphthalen-1-yl]-amide], the IC50 stood at 7.3 nM.

As for `O=C(NCCO)c1ccc(S(=O)(=O)Cc2c(O[C@H](Cn3ccnc3)c3ccccc3)ccc3c2CCCC3=O)cc1` [Compound 175, N-(2-Hydroxyethyl)-4-{[(2-{[(1S)-2-(1H-imidazol-1-yl)-1-phenylethyl]oxy}-5-oxo-5,6,7,8-tetrahydro-1-naphthalenyl)methyl]sulfonyl}benzamide], the 50% inhibitory concentration (IC50) is 10 nM.

With `O=C1CCCc2c1ccc(O[C@H](Cn1ccnc1)c1ccccc1)c2Oc1ccccc1` [Compound 46, 6-((1S)-2-imidazolyl-1-phenylethoxy)-5-phenoxy-2,3,4-trihydronaphthalen-1-one], the IC50 came out at 37 nM.

On to `CC(C)(C)OC(=O)NCc1c(O[C@H](Cn2ccnc2)c2ccccc2)ccc2c1CCCC2=O` [Compound 41, [2-((S)-2-Imidazol-1-yl-1-phenyl-ethoxy)-5-oxo-5,6,7,8-tetrahydro-naphthalen-1-ylmethyl]-carbamic acid tert-butyl ester], for which the concentration for half-maximal inhibition (IC50) came to 14 nM.

In the case of `O=C1CCCc2c1ccc(O[C@H](Cn1ccnc1)c1ccccc1)c2COc1cccc(F)c1` [Compound 102], the half-inhibitory concentration (IC50) is 5 nM.

For `CCOC(=O)C(C)NC(=O)c1ccccc1S(=O)(=O)Cc1c(O[C@H](Cn2ccnc2)c2ccccc2)ccc2c1CCCC2=O` (stereo partly drawn) [Compound 185, Ethyl 2-[(2-{[(2-{[(1S)-2-(1H-Imidazol-1-yl)-1-phenylethyl]oxy}-5-oxo-5,6,7,8-tetrahydro-1-naphthalenyl)methyl]sulfonyl}benzoyl)amino]propanoate], the IC50 came out at 4 nM.

Take `O=C(O)c1cccnc1SCc1c(O[C@H](Cn2ccnc2)c2ccccc2)ccc2c1CCCC2=O` [Compound 126, 2-{[2-((1S)-2-Imidazolyl-1-phenylethoxy)-5-oxo-6,7,8-trihydronaphenyl]methylthio}pyridine-3-carboxylic acid]: the concentration for half-maximal inhibition (IC50) was 19 nM.

As for `COC(=O)c1ccc(CCc2c(O[C@H](Cn3ccnc3)c3ccccc3)ccc3c2CCCC3=O)cc1` [Compound 27, Methyl 4-(2-[2-((1S)-2-imidazolyl-1-phenylethoxy)-5-oxo-6,7,8-trihydronaphthyl]ethyl}benzoate], the IC50 is 10 nM.

For `O=C1CCCc2c1ccc(O[C@H](Cn1ccnc1)c1ccccc1)c2C[S+]([O-])c1ccccn1` (mixture of isomers) [Compound 142, 6-((S)-2-Imidazol-1-yl-1-phenyl-ethoxy)-5-(pyridine-2-sulfinylmethyl)-3,4-dihydro-2H-napthalen-1-one], the half-maximal inhibitory concentration (IC50) was found to be 0.55 nM.

For the compound `O=C1CCCc2c1ccc(O[C@H](Cn1ccnc1)c1ccccc1)c2-c1ccoc1` [Compound 36], the half-maximal inhibitory concentration (IC50) came to 7 nM.

In the case of `CN(C)CCNC(=O)c1ccccc1SCc1c(O[C@H](Cn2ccnc2)c2ccccc2)ccc2c1CCCC2=O` [Compound 179, N-[2-(Dimethylamino)ethyl]-2-{[(2-{[(1S)-2-(1H-imidazol-1-yl)-1-phenylethyl]oxy}-5-oxo-5,6,7,8-tetrahydro-1-naphthalenyl)methyl]sulfanyl}benzamide], the half-maximal inhibitory concentration (IC50) is 6 nM.

With `O=C(O)CCNC(=O)c1ccccc1SCc1c(O[C@H](Cn2ccnc2)c2ccccc2)ccc2c1CCCC2=O` [Compound 169, N-2-{[(2-{[(1S)-2-(1H-Imidazol-1-yl)-1-phenylethyl]oxy}-5-oxo-5,6,7,8-tetrahydro-1-naphthalenyl)methyl]sulfanyl}benzoyl-β-alanine], the IC50 amounted to 7 nM.

Turning to `CC[C@H](C)CNC(=O)c1ccc(SCc2c(O[C@H](Cn3ccnc3)c3ccccc3)ccc3c2CCCC3=O)cc1` [Compound 251, 4-{[(2-{[(1S)-2-(1H-Imidazol-1-yl)-1-phenylethyl]oxy}-5-oxo-5,6,7,8-tetrahydro-1-naphthalenyl)methyl]sulfanyl}-N-[(2S)-2-methylbutyl]benzamide], the IC50 was found to be 0.2 nM.

With `COC(=O)c1ccc(S(=O)(=O)Cc2c(O[C@H](Cn3ccnc3)c3ccccc3)ccc3c2CCCC3=O)cc1` [Compound 155, Methyl 4-{[(2-{[(1S)-2-(1H-Imidazol-1-yl)-1-phenylethyl]oxy}-5-oxo-5,6,7,8-tetrahydro-1-naphthalenyl)methyl]sulfonyl}benzoate], the half-maximal inhibitory concentration (IC50) turned out to be 20 nM.

As to `CC(O)CNC(=O)c1cccc(S(=O)(=O)Cc2c(O[C@H](Cn3ccnc3)c3ccccc3)ccc3c2CCCC3=O)c1` (stereo partly drawn) [Compound 254, N-(2-Hydroxypropyl)-3-{[(2-{[(1S)-2-(1H-imidazol-1-yl)-1-phenylethyl]oxy}-5-oxo-5,6,7,8-tetrahydro-1-naphthalenyl)methyl]sulfonyl}benzamide], the IC50 came out at 1 nM.

`CC(C)c1ccc(OCc2c(O[C@H](Cn3ccnc3)c3ccccc3)ccc3c2CCCC3=O)cc1` [Compound 72]: the half-maximal inhibitory concentration (IC50) worked out at 5 nM.

Regarding `O=C1CCCc2c1ccc(O[C@H](Cn1ccnc1)c1ccccc1)c2CN1CCN(c2ccccc2)CC1` [Compound 146, 6-((S)-2-Imidazol-1-yl-1-phenyl-ethoxy)-5-(4-phenyl-piperazin-1-ylmethyl)-3,4-dihydro-2H-napthalen-1-one], the IC50 was 34 nM.

On to `C=CCc1c(OC(Cn2ccnc2)c2cccs2)ccc2c1CCCC2=O` (racemic) [Compound 61, (±)-6-(2-imidazolyl-1-(2-thienyl)ethoxy)-5-prop-2-ethyl-2,3,4-trihydronaphthalen-1-one], for which the half-inhibitory concentration (IC50) was 7 nM.

Consider `O=C1CCCc2c1ccc(O[C@H](Cn1ccnc1)c1ccccc1)c2CNc1ccc2[nH]ncc2c1` [Compound 145], for which the IC50 was determined as 16 nM.

For `COCc1c(O[C@H](Cn2ccnc2)c2ccccc2)ccc2c1CCCC2=O` [Compound 64], the IC50 worked out at 11 nM.

For the compound `CC(C)[C@@H](Cn1ccnc1)Oc1ccc2c(c1CS(=O)(=O)C(C)C)CCCC2=O` [Compound 63g, 6-((S)-1-Imidazol-1-ylmethyl-2-methyl-propoxy)-5-(propane-2-sulfonylmethyl)-3,4-dihydro-2H-napthalen-1-one], the IC50 turned out to be 9.5 nM.

For `COC(=O)c1ccc(N(C)Cc2c(O[C@H](Cn3ccnc3)c3ccccc3)ccc3c2CCCC3=O)cc1` [Compound 13, Methyl 4-({[2-((1S)-2-imidazolyl-1-phenylethoxy)-5-oxo(6,7,8-trihydronaphthyl)]methyl}methylamino)benzoate], the IC50 worked out at 2 nM.

Turning to `O=C1CCCc2c1ccc(O[C@H](Cn1ccnc1)c1ccccc1)c2COc1cccc2ccccc12` [Compound 104, 6-((1S)-2-Imidazolyl-1-phenylethoxy)-5-(naphenyloxymethyl)-2,3,4-trihydronaphthalen-1-one], the concentration for half-maximal inhibition (IC50) was determined as 5 nM.

Turning to `Nc1c(O[C@H](Cn2ccnc2)c2ccccc2)ccc2c1CCCC2=O` [Compound 37a, 5-Amino-6-((S)-2-imidazol-1-yl-1-phenyl-ethoxy)-3,4-dihydro-2H-naphthalen-1-one], the IC50 is 14 nM.

As to `COCCNC(=O)c1cccc(S(=O)(=O)Cc2c(O[C@H](Cn3ccnc3)c3ccccc3)ccc3c2CCCC3=O)c1` [Compound 263, 3-{[(2-{[(1S)-2-(1H-Inimidazol-1-yl)-1-phenylethyl]oxy}-5-oxo-5,6,7,8-tetrahydro-1-naphthalenyl)methyl]sulfonyl}-N-(2-methoxyethyl)benzamide], the half-maximal inhibitory concentration (IC50) worked out at 0.2 nM.

With `CC[C@H](C)CNC(=O)c1cccc(S(=O)(=O)Cc2c(O[C@H](Cn3ccnc3)c3ccccc3)ccc3c2CCCC3=O)c1` [Compound 248], the 50% inhibitory concentration (IC50) was found to be 0.2 nM.

Regarding `C#CCNC(=O)c1cccc(SCc2c(O[C@H](Cn3ccnc3)c3ccccc3)ccc3c2CCCC3=O)c1` [Compound 213, 3-{[(2-{[(1S)-2-(1H-Imidazol-1-yl)-1-phenylethyl]oxy}-5-oxo-5,6,7,8-tetrahydro-1-naphthalenyl)methyl]sulfanyl}-N-(2-propynyl)benzamide], the IC50 is 0.2 nM.

Regarding `O=C1CCCc2c1ccc(O[C@H](Cn1ccnc1)c1ccccc1)c2COc1ccc2c(c1)CCCC2` [Compound 73, 6-((1S)-2-Imidazolyl-1-phenylethoxy)-5-(2-5,6,7,8-tetrahydro-naphthyloxymethyl)-2,3,4-trihydronaphthalen-1-one], the IC50 came to 2 nM.

As to `C=CCc1c(O[C@H](Cn2ccnc2)c2ccccc2)ccc2c1CCCC2=O` [Compound 51, 6-((1S)-2-Imidazolyl-1-phenylethoxy)-5-prop-2-enyl-2,3,4-trihydronaphthalen-1-one], the IC50 stood at 3 nM.

With `N#Cc1ccc(Cc2c(O[C@H](Cn3ccnc3)c3ccccc3)ccc3c2CCCC3=O)cc1` [Compound 33, 4-{[2-((1S)-2-Imidazolyl-1-phenylethoxy)-5-oxo-6,7,8-trihydronaphthyl]methyl}benzenecarbonitrile], the IC50 was found to be 4 nM.

`O=C1CCCc2c1ccc(O[C@H](Cn1ccnc1)c1ccccc1)c2CN1CCN(c2ccccn2)CC1` [Compound 147, 6-((S)-2-Imidazol-1-yl-1-phenyl-ethoxy)-5-(4-pyridin-2-yl-piperazin-1-ylmethyl)-3,4-dihydro-2H-napthalen-1-one]: the IC50 stood at 19 nM.

Consider `O=C1CCCc2c1ccc(O[C@H](Cn1ccnc1)c1ccccc1)c2CCc1cccc[n+]1[O-]` [Compound 25, 6-((1S)-2-Imidazolyl-1-phenylethoxy)-5-[2-(1-oxy(2-pyridyl))ethyl]-2,3,4-trihydronaphthalen-1-one], for which the IC50 was 5 nM.

The values are drawn from patent US6943183B2 (Pfizer Inc, priority 2000, dated 2005).
